Test results as given in the supplement of paper PMC10307832.

Experiments:
Experiment in all cases: relative viability (nuclei count vs DMSO), 5 days (fraction); higher = more cells survive
RERF-LC-KJ = test system: RERF-LC-KJ
Procedure, shortened: (§1)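 The day after seeding in 1536-well plates, lung cancer cell lines were treated by pin tool with a single drug, or with a fixed anchor-drug dose together with five library-drug doses (not always all listed) in √10 steps. After 5 days, a combined fix-and-stain solution (final 0.05% Triton X-100, 1% formaldehyde, 1 ug/ml Hoechst) was added. Nuclei counted on 4× images gave relative viability as treated counts over vehicle counts, reported as the median of duplicate plates.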

LOU-NH91 = test system: LOU-NH91
Procedure, shortened: as §1

NCI-H1792 = test system: NCI-H1792
Procedure, shortened: as §1

SK-MES-1 = test system: SK-MES-1
Procedure, shortened: as §1

COR-L 105 = test system: COR-L 105
Procedure, shortened: as §1

NCI-H358 = test system: NCI-H358
Procedure, shortened: as §1

NCI-H1650 = test system: NCI-H1650
Procedure, shortened: as §1

HCC-78 = test system: HCC-78
Procedure, shortened: as §1

LCLC-97TM1 = test system: LCLC-97TM1
Procedure, shortened: as §1

LU99A = test system: LU99A
Procedure, shortened: as §1

NCI-H727 = test system: NCI-H727
Procedure, shortened: as §1

EKVX = test system: EKVX
Procedure, shortened: as §1

BEN = test system: BEN
Procedure, shortened: as §1

EMC-BAC-2 = test system: EMC-BAC-2
Procedure, shortened: as §1

SW 1573 = test system: SW 1573
Procedure, shortened: as §1

NCI-H1944 = test system: NCI-H1944
Procedure, shortened: as §1

LK-2 = test system: LK-2
Procedure, shortened: as §1

HCC-827 = test system: HCC-827
Procedure, shortened: as §1

NCI-H1734 = test system: NCI-H1734
Procedure, shortened: as §1

NCI-H2126 = test system: NCI-H2126
Procedure, shortened: as §1

EPLC-272H = test system: EPLC-272H
Procedure, shortened: as §1

NCI-H2087 = test system: NCI-H2087
Procedure, shortened: as §1

For `O=C(O)CCCCC(CCSCc1ccccc1)SCc1ccccc1` (centres undefined) [CPI-613] + CS(=O)(=O)CCNCc1ccc(-c2ccc3ncnc(Nc4ccc(OCc5cccc(F)c5)c(Cl)c4)c3c2)o1 [Lapatinib] (partner 2 µM), the relative viability (RERF-LC-KJ; first compound 5 µM) was 0.857, the relative viability (RERF-LC-KJ; first compound 15.81 µM) was 0.826 and the relative viability (RERF-LC-KJ; first compound 50 µM) was 0.782. The relative viability (RERF-LC-KJ; first compound 158.11 µM) was 0.854, the relative viability (RERF-LC-KJ; first compound 500 µM) was 0.819 and the relative viability (LOU-NH91; first compound 5 µM) was 0.79. The relative viability (LOU-NH91; first compound 15.81 µM) was 0.722, the relative viability (LOU-NH91; first compound 50 µM) was 0.834 and the relative viability (LOU-NH91; first compound 158.11 µM) was 0.739. It also gave a relative viability (LOU-NH91; first compound 500 µM) of 0.699, a relative viability (NCI-H1792; first compound 5 µM) of 0.841 and a relative viability (NCI-H1792; first compound 15.81 µM) of 0.846. For the same compound, the relative viability (NCI-H1792; first compound 50 µM) was 0.838, the relative viability (NCI-H1792; first compound 158.11 µM) was 0.72 and the relative viability (NCI-H1792; first compound 500 µM) was 0.9. The relative viability (SK-MES-1; first compound 5 µM) was 0.458, the relative viability (SK-MES-1; first compound 15.81 µM) was 0.399 and the relative viability (SK-MES-1; first compound 50 µM) was 0.428. The relative viability (SK-MES-1; first compound 158.11 µM) was 0.408, the relative viability (SK-MES-1; first compound 500 µM) was 0.458 and the relative viability (COR-L 105; first compound 5 µM) was 0.364. It also gave a relative viability (COR-L 105; first compound 15.81 µM) of 0.323, a relative viability (COR-L 105; first compound 50 µM) of 0.377 and a relative viability (COR-L 105; first compound 158.11 µM) of 0.291. For the same compound, the relative viability (COR-L 105; first compound 500 µM) was 0.263, the relative viability (NCI-H358; first compound 5 µM) was 0.416 and the relative viability (NCI-H358; first compound 15.81 µM) was 0.436. The relative viability (NCI-H358; first compound 50 µM) was 0.409, the relative viability (NCI-H358; first compound 158.11 µM) was 0.296 and the relative viability (NCI-H358; first compound 500 µM) was 0.0347. The relative viability (NCI-H1650; first compound 5 µM) was 0.584, the relative viability (NCI-H1650; first compound 15.81 µM) was 0.662 and the relative viability (NCI-H1650; first compound 50 µM) was 0.719. For the same compound, the relative viability (NCI-H1650; first compound 158.11 µM) was 0.082, the relative viability (NCI-H1650; first compound 500 µM) was 0.023 and the relative viability (HCC-78; first compound 5 µM) was 0.825. It also gave a relative viability (HCC-78; first compound 15.81 µM) of 0.591, a relative viability (HCC-78; first compound 158.11 µM) of 0.816 and a relative viability (HCC-78; first compound 500 µM) of 1.14. It also gave a relative viability (LCLC-97TM1; first compound 5 µM) of 1.19, a relative viability (LCLC-97TM1; first compound 15.81 µM) of 0.906 and a relative viability (LCLC-97TM1; first compound 50 µM) of 1.07. The relative viability (LCLC-97TM1; first compound 158.11 µM) was 1.01, the relative viability (LCLC-97TM1; first compound 500 µM) was 0.0553 and the relative viability (LU99A; first compound 5 µM) was 0.937. The relative viability (LU99A; first compound 15.81 µM) was 0.918, the relative viability (LU99A; first compound 50 µM) was 0.887 and the relative viability (LU99A; first compound 158.11 µM) was 0.608. It also gave a relative viability (LU99A; first compound 500 µM) of 0.0424, a relative viability (NCI-H727; first compound 5 µM) of 0.739 and a relative viability (NCI-H727; first compound 15.81 µM) of 0.609. It also gave a relative viability (NCI-H727; first compound 50 µM) of 0.683, a relative viability (NCI-H727; first compound 158.11 µM) of 0.673 and a relative viability (NCI-H727; first compound 500 µM) of 0.0973. For the same compound, the relative viability (EKVX; first compound 5 µM) was 0.186, the relative viability (EKVX; first compound 15.81 µM) was 0.208 and the relative viability (EKVX; first compound 50 µM) was 0.218. The relative viability (EKVX; first compound 158.11 µM) was 0.193, the relative viability (EKVX; first compound 500 µM) was 0.206 and the relative viability (BEN; first compound 5 µM) was 0.673. For the same compound, the relative viability (BEN; first compound 15.81 µM) was 0.577, the relative viability (BEN; first compound 50 µM) was 0.526 and the relative viability (BEN; first compound 158.11 µM) was 0.502. For the same compound, the relative viability (BEN; first compound 500 µM) was 0.624, the relative viability (EMC-BAC-2; first compound 5 µM) was 0.827 and the relative viability (EMC-BAC-2; first compound 15.81 µM) was 0.86. For the same compound, the relative viability (EMC-BAC-2; first compound 50 µM) was 0.847, the relative viability (EMC-BAC-2; first compound 158.11 µM) was 0.954 and the relative viability (EMC-BAC-2; first compound 500 µM) was 0.0887. For the same compound, the relative viability (SW 1573; first compound 5 µM) was 1.24, the relative viability (SW 1573; first compound 15.81 µM) was 1.06 and the relative viability (SW 1573; first compound 50 µM) was 1.13. The relative viability (SW 1573; first compound 158.11 µM) was 1.06, the relative viability (SW 1573; first compound 500 µM) was 1 and the relative viability (NCI-H1944; first compound 5 µM) was 0.818. The relative viability (NCI-H1944; first compound 15.81 µM) was 0.725, the relative viability (NCI-H1944; first compound 50 µM) was 0.753 and the relative viability (NCI-H1944; first compound 158.11 µM) was 0.77. It also gave a relative viability (NCI-H1944; first compound 500 µM) of 0.632, a relative viability (LK-2; first compound 5 µM) of 0.967 and a relative viability (LK-2; first compound 15.81 µM) of 0.864. The relative viability (LK-2; first compound 50 µM) was 0.876, the relative viability (LK-2; first compound 158.11 µM) was 0.905 and the relative viability (LK-2; first compound 500 µM) was 0.853. For the same compound, the relative viability (HCC-827; first compound 5 µM) was 0.212, the relative viability (HCC-827; first compound 15.81 µM) was 0.181 and the relative viability (HCC-827; first compound 50 µM) was 0.196. For the same compound, the relative viability (HCC-827; first compound 158.11 µM) was 0.173, the relative viability (HCC-827; first compound 500 µM) was 0.0605 and the relative viability (NCI-H1734; first compound 5 µM) was 0.939. It also gave a relative viability (NCI-H1734; first compound 15.81 µM) of 0.686, a relative viability (NCI-H1734; first compound 50 µM) of 1 and a relative viability (NCI-H1734; first compound 158.11 µM) of 0.349. The relative viability (NCI-H1734; first compound 500 µM) was 0.116, the relative viability (NCI-H2126; first compound 5 µM) was 0.723 and the relative viability (NCI-H2126; first compound 15.81 µM) was 0.754. It also gave a relative viability (NCI-H2126; first compound 50 µM) of 0.758, a relative viability (NCI-H2126; first compound 158.11 µM) of 0.612 and a relative viability (NCI-H2126; first compound 500 µM) of 0.738. The relative viability (EPLC-272H; first compound 5 µM) was 0.905, the relative viability (EPLC-272H; first compound 15.81 µM) was 0.828 and the relative viability (EPLC-272H; first compound 50 µM) was 0.879. The relative viability (EPLC-272H; first compound 158.11 µM) was 1, the relative viability (EPLC-272H; first compound 500 µM) was 0.857 and the relative viability (NCI-H2087; first compound 5 µM) was 1.06. For the same compound, the relative viability (NCI-H2087; first compound 15.81 µM) was 0.934, the relative viability (NCI-H2087; first compound 50 µM) was 0.72 and the relative viability (NCI-H2087; first compound 158.11 µM) was 0.525. It also gave a relative viability (NCI-H2087; first compound 500 µM) of 0.012.
